Results reported in ChEMBL document CHEMBL1201862, “PubChem BioAssay data set” (2004).
Calls of active or inactive are those of the source.

Key:
[1] = inhibitors of Vif binding to APOBEC3G peptide, primary screen, biochemical, TR-FRET, GST-Vif 1-94, biotin-A3G peptide, dose response retest (AID 1117319); type: functional;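 note: TR-FRET signal of purified GST-Vif binding a biotinylated A3G peptide; inhibitors lower the FRET signal by blocking Vif and A3G binding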
[2] = target: Heat shock protein HSP 90-alpha (Homo sapiens, UniProt P07900); type: functional, organism-based
[3] = control 3'UTR Renilla luciferase suppression, dose response, counter-screen for Shn3 inhibitor project, cell-based, Clone20-Shn3RL, cherry-picked (AID 624133); type: functional
Paired box protein Pax-8 = Paired box protein Pax-8 (Homo sapiens, UniProt Q06710); test: inhibitors of PAX8-driven TPO luciferase reporter, dose response, RMG-I cells, cherry-pick (AID 687027); type: functional, cell-based;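 note: luciferase reporter driven by Pax8 target thyroperoxidase promoter measured by SteadyGlo luminescence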
Chain of Paired box protein Pax-8 (Q06710 whole entry): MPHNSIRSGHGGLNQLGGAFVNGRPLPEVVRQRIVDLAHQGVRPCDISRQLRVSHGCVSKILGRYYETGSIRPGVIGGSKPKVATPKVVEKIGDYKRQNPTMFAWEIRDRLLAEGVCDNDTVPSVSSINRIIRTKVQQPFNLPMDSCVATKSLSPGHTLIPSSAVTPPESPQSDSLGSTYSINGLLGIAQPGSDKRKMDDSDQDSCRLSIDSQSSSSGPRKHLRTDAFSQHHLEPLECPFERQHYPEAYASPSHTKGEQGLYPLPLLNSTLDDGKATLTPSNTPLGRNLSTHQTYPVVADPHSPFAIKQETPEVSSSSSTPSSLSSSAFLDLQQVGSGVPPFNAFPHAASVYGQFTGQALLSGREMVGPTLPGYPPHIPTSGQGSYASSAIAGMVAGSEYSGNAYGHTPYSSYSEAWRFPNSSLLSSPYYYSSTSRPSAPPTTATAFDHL

[4] = Shn3 3'UTR reporter inhibitors, dose response, cell-based, Clone20 osteoblasts, firefly luciferase, cherry-picked (AID 624132); type: functional;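 note: firefly luciferase luminescence from reporter carrying the Shn3 3'UTR in osteoblasts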
[5] = target: Photoreceptor-specific nuclear receptor (Homo sapiens, UniProt Q9Y5X4); type: functional, cell-based;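 note: CHO-S cells with Gal4-NCOR and VP16-NR2E3 two-hybrid luciferase reporter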
Chain of Photoreceptor-specific nuclear receptor (Q9Y5X4 whole entry, the tested form may be a part): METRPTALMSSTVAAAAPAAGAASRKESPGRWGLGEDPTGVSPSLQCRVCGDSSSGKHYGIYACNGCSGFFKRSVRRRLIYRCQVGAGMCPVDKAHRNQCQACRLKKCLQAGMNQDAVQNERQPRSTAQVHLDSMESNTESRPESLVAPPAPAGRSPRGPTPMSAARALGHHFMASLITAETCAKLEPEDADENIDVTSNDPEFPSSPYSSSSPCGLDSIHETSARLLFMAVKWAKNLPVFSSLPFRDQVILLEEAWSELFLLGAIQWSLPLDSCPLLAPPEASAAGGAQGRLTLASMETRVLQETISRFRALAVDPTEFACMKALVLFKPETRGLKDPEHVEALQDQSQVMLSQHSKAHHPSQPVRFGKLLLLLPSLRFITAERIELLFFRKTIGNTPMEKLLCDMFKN

[6] = HepG2 cell cytotoxicity, dose response, cytotoxicity control for Shn3 inhibitor project, CellTiter-Glo, cherry-picked (AID 624134); type: functional, cell-based
Protein RecA = target: T1, Protein RecA (Mycobacterium tuberculosis, UniProt P9WHJ3); test: Fluorescence Cell-Free Homogeneous Dose Retest to Identify Inhibitors of RecA-Intein Splicing Activity. [Related pubchem assays (depositor defined):AID2097, AID2223, AID489010, AID492950]; type: functional
T1 sequence (P9WHJ3 whole entry): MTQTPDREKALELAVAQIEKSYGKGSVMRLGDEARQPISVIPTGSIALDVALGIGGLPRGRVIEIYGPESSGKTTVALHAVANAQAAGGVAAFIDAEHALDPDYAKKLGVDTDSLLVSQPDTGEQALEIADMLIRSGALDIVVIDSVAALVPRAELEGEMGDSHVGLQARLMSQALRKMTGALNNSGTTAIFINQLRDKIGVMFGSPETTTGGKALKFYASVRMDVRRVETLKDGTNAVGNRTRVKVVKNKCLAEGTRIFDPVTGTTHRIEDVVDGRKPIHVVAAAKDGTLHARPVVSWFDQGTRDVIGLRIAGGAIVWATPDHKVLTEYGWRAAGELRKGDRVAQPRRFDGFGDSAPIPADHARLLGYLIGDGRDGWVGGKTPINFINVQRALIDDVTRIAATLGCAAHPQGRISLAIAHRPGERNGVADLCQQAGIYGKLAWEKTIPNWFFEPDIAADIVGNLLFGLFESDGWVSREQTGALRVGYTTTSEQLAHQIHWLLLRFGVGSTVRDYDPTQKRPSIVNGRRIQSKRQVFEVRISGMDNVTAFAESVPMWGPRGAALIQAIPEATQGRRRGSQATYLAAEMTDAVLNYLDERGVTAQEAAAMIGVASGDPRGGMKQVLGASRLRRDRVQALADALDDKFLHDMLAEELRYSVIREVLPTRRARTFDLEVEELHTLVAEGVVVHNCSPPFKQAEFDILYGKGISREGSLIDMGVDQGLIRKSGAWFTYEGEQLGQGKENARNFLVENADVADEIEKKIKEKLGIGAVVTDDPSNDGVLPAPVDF

INS1 = test: beta cell apoptosis inhibitors, cytokine rescue, dose response, luminescence, retest (AID 449756); type: functional, cell-based; conditions: Rattus norvegicus;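 note: cell death triggered by IL-1 beta plus TNF-alpha plus IFN-gamma mixture; protective hits raise ATP signal compared with cytokine alone wells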
[7] = target: T2, Replicative DNA helicase DnaB (Mycobacterium tuberculosis, UniProt P9WMR3); test: DnaB intein splicing inhibitors, dose response, biochemical, cell-free fluorescence (AID 449749); type: functional
T2 sequence (P9WMR3 whole entry): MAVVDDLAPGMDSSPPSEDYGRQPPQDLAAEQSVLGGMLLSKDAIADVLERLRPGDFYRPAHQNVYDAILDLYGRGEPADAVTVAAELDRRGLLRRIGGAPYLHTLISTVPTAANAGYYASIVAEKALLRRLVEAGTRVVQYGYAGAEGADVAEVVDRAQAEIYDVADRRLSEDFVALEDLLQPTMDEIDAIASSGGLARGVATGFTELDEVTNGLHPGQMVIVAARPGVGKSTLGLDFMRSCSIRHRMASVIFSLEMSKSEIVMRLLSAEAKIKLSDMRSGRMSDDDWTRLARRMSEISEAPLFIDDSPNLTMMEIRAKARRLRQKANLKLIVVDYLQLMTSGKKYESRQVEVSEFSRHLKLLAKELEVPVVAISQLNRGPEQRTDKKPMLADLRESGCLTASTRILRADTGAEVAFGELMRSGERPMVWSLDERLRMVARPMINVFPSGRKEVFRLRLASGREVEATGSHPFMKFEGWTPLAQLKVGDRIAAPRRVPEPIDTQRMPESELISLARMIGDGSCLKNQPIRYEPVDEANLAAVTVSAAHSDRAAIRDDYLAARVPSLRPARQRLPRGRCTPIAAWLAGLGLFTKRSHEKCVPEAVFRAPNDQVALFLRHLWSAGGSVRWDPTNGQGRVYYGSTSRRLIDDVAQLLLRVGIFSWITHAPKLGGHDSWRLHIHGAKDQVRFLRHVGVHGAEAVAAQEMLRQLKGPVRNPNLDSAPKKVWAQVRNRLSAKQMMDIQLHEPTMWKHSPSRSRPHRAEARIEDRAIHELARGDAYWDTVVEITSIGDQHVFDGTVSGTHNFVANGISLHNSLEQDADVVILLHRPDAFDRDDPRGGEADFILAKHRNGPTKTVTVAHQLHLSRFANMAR

Genome polyprotein = Genome polyprotein (dengue virus type 2, UniProt P29990); test: Dengue-2 NS5 methyltransferase inhibitors, primary screen, biochemical, confirmation dose response (AID 588689); type: functional
Chain of Genome polyprotein (P29990 2492-3391 limits assumed): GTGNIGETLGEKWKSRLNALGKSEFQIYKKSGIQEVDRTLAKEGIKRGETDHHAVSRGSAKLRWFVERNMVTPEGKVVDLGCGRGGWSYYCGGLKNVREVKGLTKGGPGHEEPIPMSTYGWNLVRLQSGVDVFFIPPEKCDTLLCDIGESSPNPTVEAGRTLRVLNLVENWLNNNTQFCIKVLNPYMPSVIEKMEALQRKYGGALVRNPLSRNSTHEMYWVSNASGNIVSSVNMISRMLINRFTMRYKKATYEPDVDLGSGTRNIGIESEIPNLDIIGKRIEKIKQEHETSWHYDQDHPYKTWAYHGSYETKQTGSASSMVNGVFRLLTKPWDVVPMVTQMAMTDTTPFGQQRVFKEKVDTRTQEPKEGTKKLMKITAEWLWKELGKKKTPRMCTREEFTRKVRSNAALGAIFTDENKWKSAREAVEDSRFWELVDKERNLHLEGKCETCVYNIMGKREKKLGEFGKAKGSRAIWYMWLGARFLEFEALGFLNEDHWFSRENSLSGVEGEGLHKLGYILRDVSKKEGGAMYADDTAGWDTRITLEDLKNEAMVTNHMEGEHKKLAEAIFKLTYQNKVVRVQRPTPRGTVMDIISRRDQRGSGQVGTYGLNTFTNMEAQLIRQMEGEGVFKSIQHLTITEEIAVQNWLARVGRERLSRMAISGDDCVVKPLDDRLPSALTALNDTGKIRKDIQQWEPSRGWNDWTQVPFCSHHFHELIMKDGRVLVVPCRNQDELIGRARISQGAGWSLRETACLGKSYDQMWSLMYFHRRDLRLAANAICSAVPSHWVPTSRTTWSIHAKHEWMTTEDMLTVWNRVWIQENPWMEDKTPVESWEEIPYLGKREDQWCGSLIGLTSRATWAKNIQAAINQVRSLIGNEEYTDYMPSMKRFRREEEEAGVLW

Cytochrome P450 2D6 = Cytochrome P450 2D6 (Homo sapiens, UniProt P10635);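 note: CYP2D6 member of a cytochrome P450 panel assay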
Chain of Cytochrome P450 2D6 (P10635 whole entry): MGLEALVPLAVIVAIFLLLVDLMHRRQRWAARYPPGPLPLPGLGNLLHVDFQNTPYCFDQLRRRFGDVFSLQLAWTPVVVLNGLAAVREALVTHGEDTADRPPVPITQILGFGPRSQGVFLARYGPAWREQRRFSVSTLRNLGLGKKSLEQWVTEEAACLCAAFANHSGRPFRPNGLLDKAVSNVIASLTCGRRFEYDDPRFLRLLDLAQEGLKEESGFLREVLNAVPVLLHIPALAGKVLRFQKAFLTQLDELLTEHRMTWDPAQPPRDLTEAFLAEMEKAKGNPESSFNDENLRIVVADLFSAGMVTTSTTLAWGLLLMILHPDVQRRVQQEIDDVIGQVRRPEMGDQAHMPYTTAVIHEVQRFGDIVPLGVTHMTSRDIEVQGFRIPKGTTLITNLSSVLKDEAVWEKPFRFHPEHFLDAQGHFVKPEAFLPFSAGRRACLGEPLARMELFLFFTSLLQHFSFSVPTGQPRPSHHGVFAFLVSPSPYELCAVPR

Tumor necrosis factor = Tumor necrosis factor (Homo sapiens, UniProt P01375); test: TNFa-triggered NF-kB activation inhibitors, SAR follow-up, cell-based, revised (AID 2337); type: functional
Chain of Tumor necrosis factor (P01375 whole entry): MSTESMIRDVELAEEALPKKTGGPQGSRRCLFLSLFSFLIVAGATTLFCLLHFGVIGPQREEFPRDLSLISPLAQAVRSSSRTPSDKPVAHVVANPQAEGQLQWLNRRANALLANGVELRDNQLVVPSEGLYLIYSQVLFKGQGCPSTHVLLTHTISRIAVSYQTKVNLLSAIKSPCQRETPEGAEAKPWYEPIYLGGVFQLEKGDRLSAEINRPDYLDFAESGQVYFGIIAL

HEK293 [8] = test: cells; conditions: Homo sapiens
[9] = target: T3, Nucleotide-binding oligomerization domain-containing protein 1 (Homo sapiens, UniProt Q9Y239); test: NOD1 signaling inhibitors, SAR follow-up, revised (AID 2333); type: functional
T3 sequence (Q9Y239 whole entry): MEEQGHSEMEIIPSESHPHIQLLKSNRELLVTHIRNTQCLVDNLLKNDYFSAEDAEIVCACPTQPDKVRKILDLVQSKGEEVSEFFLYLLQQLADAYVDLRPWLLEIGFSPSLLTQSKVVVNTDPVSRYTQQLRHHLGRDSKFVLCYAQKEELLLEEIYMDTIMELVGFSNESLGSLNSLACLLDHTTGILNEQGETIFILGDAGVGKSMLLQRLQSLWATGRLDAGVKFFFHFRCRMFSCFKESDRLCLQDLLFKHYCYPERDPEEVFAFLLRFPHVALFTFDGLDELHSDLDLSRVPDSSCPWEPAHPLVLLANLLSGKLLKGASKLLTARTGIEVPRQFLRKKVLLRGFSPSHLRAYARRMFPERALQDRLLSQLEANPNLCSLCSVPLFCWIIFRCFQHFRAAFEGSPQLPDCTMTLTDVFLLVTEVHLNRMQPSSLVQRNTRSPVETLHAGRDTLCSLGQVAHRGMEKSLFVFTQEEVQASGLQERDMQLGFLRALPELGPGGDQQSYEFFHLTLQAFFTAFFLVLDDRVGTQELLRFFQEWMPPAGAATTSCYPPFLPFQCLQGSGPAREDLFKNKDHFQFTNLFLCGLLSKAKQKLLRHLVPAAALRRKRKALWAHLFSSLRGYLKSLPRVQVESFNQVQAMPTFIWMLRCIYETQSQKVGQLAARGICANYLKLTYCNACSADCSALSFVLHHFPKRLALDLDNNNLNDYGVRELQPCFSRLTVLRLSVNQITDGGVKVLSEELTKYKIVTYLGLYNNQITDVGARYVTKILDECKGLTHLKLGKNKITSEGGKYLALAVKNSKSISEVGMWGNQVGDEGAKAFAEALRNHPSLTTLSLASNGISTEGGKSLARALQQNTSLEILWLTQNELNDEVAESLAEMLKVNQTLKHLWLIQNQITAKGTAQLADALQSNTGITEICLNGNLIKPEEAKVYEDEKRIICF

Cytochrome P450 2C9 = Cytochrome P450 2C9 (Homo sapiens, UniProt P11712)
Chain of Cytochrome P450 2C9 (P11712 whole entry): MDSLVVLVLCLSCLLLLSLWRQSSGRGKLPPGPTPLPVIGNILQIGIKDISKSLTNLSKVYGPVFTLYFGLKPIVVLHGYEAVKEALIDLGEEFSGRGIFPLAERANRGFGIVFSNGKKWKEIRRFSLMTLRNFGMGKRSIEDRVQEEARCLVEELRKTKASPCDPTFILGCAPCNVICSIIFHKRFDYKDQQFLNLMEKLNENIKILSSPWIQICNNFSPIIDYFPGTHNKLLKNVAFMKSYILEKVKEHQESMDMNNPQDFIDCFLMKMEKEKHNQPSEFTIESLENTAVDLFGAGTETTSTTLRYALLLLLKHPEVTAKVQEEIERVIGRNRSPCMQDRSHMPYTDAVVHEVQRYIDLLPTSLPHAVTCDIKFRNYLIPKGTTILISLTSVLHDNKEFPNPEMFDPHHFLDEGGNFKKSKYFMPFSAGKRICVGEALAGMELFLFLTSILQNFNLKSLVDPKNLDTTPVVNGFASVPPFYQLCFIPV

Cytochrome P450 2C19 = Cytochrome P450 2C19 (Homo sapiens, UniProt P33261); test: Cytochrome panel assay with activity outcomes. Panel member name: p450-cyp2c19 Compounds with AC50 equal or less than 10 uM are considered active; type: functional; conditions: read-out: AC50
Chain of Cytochrome P450 2C19 (P33261 whole entry): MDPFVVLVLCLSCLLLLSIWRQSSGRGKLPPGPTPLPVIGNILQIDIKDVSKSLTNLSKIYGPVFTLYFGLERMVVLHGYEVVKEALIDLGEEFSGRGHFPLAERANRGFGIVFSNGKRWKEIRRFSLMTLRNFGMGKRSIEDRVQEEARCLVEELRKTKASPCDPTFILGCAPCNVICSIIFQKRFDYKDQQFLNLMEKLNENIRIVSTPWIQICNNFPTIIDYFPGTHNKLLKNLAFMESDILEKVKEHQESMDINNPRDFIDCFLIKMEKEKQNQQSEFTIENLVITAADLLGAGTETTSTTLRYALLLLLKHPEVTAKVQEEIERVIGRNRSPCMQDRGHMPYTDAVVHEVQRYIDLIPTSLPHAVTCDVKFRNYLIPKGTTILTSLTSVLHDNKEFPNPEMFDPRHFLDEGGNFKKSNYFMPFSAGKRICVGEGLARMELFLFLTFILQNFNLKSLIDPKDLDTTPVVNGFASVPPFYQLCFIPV

HEK293 [10] = test: cells; type: functional, cell-based; conditions: Homo sapiens
[11] = target: T4, Nuclear receptor subfamily 0 group B member 1 (Homo sapiens, UniProt P51843); test: Luminescence-based cell-based high throughput dose response assay for inhibitors of the orphan nuclear receptor subfamily 0, group B, member 1 (DAX1; NR0B1). [Related pubchem assays (depositor defined):AID504766, AID504790]; type: functional
T4 sequence (P51843 whole entry): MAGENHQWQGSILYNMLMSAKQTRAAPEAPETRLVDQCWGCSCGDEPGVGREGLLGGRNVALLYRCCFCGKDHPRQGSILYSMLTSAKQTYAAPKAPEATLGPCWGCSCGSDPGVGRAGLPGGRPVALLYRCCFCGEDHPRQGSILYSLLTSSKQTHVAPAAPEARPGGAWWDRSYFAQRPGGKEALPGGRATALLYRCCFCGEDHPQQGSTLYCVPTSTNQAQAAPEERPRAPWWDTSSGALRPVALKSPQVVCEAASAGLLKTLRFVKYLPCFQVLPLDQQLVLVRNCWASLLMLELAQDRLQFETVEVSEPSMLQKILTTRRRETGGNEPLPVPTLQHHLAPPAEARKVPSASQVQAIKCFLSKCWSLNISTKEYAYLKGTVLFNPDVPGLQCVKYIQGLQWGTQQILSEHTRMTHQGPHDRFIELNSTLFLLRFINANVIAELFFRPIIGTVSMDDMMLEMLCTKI

HEK293 [12] = test: cells; type: functional, cell-based; conditions: Homo sapiens; remark: listed apart in the source
HEK293 [13] = test: NOD1 signaling inhibitors, primary screen, cell-based, luminescence, uHTS (AID 1578); type: functional; conditions: Homo sapiens
HEK293 [14] = test: cells; type: functional, cell-based; conditions: Homo sapiens; remark: listed apart in the source
HEK293 [15] = test: NOD2 signaling inhibitors in MDP-stimulated cells, cell-based, uHTS, luminescence (AID 2001); type: functional; conditions: Homo sapiens

SMILES: COc1ccc(NC(=O)C2CCCN2S(=O)(=O)c2cccc3cccnc23)c(OC)c1 (configuration not stated)
- IC50 [1]: > 100 µM (active)
- AC50 [2]: 1.49 µM (active)

SMILES: CC(C)c1ccc(/C=C(\c2nc3ccccc3[nH]2)S(=O)(=O)c2ccccc2)cc1
- AC50 [3]: 10.5 µM (active)
- AC50 (Paired box protein Pax-8): 5.15 µM (active)
- AC50 [4]: 4.01 µM (active)
- IC50 [5]: 2.72 µM (active)
- AC50 [6]: 18 µM (active)
- EC50 (Protein RecA): 2.01 µM (active)
- AC50 (INS1): 4.38 µM (active)
- AC50 [7]: 2.09 µM (active)

SMILES: Cc1ccc(/C=C2\SC(=S)N(NS(=O)(=O)c3ccc(C)cc3)C2=O)cc1
- IC50 (Genome polyprotein): 25.9 µM (active)

SMILES: NCCCCC(=O)O [5-AMINOVALERIC ACID]
- AC50 (Cytochrome P450 2D6): inconclusive

SMILES: CCn1nc(C)cc1C(=O)NC1CCCc2c1cnn2-c1ccc(C)c(C)c1 (configuration not stated)
- IC50 (Tumor necrosis factor): 4.43 µM (active)
- IC50 (HEK293 [8]): > 20 µM (inactive)
- IC50 [9]: 4.76 µM (active)

SMILES: Fc1nc(N2CCCC2)c(F)c(Oc2ccccc2Oc2c(F)c(F)nc(N3CCCC3)c2F)c1F
- AC50 (Cytochrome P450 2D6): inconclusive
- AC50 (Cytochrome P450 2C9): 1 µM (inconclusive)
- AC50 (Cytochrome P450 2C19): 5.62 µM (inconclusive)

SMILES: CCOc1ccc(-c2nnc(-c3ccco3)o2)cc1OCC
- IC50 (HEK293 [10]): > 67.5 µM (inactive)
- IC50 [11]: > 67.5 µM (inactive)

SMILES: CN(C)S(=O)(=O)c1cccc(CSCc2cccc(S(=O)(=O)N(C)C)c2)c1
- IC50 (Tumor necrosis factor): 2.09 µM (active)
- IC50 (HEK293 [12]): 3.06 µM (active)
- EC50 (HEK293 [13]): 1.3 µM (active)
- IC50 (HEK293 [14]): > 20 µM (inactive)
- IC50 (HEK293 [8]): > 20 µM (inactive)
- IC50 (HEK293 [15]): 5 µM (active)
- AC50 (INS1): 3.3 µM (active)
- IC50 [9]: 2.12 µM (active)

SMILES: N=C(Cc1ccc(Cl)cc1Cl)NOC(=O)c1cccs1
- AC50 [2]: 3.59 µM (active)

SMILES: O=C1C(=NO)CCc2ccccc21
- IC50 (Genome polyprotein): 88.6 µM (active)

SMILES: COc1ccc(C(=O)Nc2ccc(NC(=O)c3ccco3)c(Cl)c2)cc1OC
- AC50 (Cytochrome P450 2D6): inconclusive

SMILES: CCCCN=C(S)NNC(=O)c1sccc1C
- AC50 (Cytochrome P450 2D6): inconclusive

SMILES: Cc1ccc(OCC(=O)NC(=S)Nc2cccc(C)n2)cc1
- IC50 (HEK293 [10]): > 67.5 µM (inactive)
- IC50 [11]: > 67.5 µM (inactive)

SMILES: Nc1cccc(Oc2c(F)c(F)c(Oc3cccc(N)c3)c(F)c2F)c1
- AC50 [2]: 7.55 µM (active)

SMILES: CCOC(=O)CSc1nnc(NC(=O)c2cccc(S(=O)(=O)N3CCCCCC3)c2)s1
- AC50 (Cytochrome P450 2D6): inconclusive
- AC50 (Cytochrome P450 2C19): 2 µM (inconclusive)
